According to patent US9956319B2, “Compositions useful as antibiofilm or antimicrobial agents and methods using same” (BAYLOR COLLEGE OF MEDICINE, priority 2012, dated 2018):

Legend:
Test in all cases: Zones of inhibition of impregnated catheter segments, modified Kirby-Bauer method
[1] = test system: MRSE; assay type: cell-based, Staphylococcus epidermidis; settings: for zone of inhibition at 100000 µg/mL: catheter impregnated with 100 mg/ml of each agent
Experimental: (§1) To evaluate the antimicrobial activity of central venous catheters treated with α-lipoic acid or its combination with gentamicin, segments of 7 French triple lumen polyurethane central venous catheters were impregnated with α-lipoic acid, gentamicin, or the combination of lipoic acid and gentamicin using the same patented method described in Example 1 with 50 mg/ml of each agent (for the final solution volume). After the impregnation process and drying, zones of inhibition were performed on one-centimeter segments according to a modified Kirby-Bauer method against MSSE, MRSE, MRSA, K. pneumoniae, E. coli, P. mirabilis, Pseudomonas aeruginosa, and Candida albicans. Each segment was half embedded in the center of a Muller-Hinton agar plate that had been previously inoculated with an individual organism. Prior to placing the catheter segments in agar, each organism was grown for 18 hours in TSB to a concentration of 0.5 McFarland (10^8 cfu/ml). A cotton swab was placed in the suspension and streaked across the surface of the Muller-Hinton agar plate to cover the entire plate. All plates were placed in a 37° C. incubator for 24 hours. Zones were measured in mm after the incubation period (Table 2).
(§2) To evaluate the antimicrobial activity of central venous catheters treated with α-lipoic acid or its combination with doxycycline, segments of 7 French triple lumen polyurethane central venous catheters were impregnated with doxycycline or the combinations of α-lipoic acid and doxycycline using the same patented method described in Example 1 (U.S. Pat. No. 6,589,591) with 50 mg/ml of each agent (for the final solution volume). After the impregnation process and drying, zones of inhibition were performed on one-centimeter segments according to a modified Kirby-Bauer method against MSSE, MRSE, MRSA, K. pneumoniae, E. coli, P. aeruginosa, P. mirabilis, and C. albicans as described in Example 2. Zones of inhibition were measured in mm after the incubation period (Table 3).
(§3) To evaluate the antimicrobial activity of central venous catheters treated with lipoamide or its combination with levofloxacin, segments of 7 French triple lumen polyurethane central venous catheters were impregnated with levofloxacin or the combinations of lipoamide and levofloxacin using the same patented method described in Example 1 (U.S. Pat. No. 6,589,591) with 100 mg/ml (final solution volume) of each agent. After the impregnation process and drying, zones of inhibition were performed on one-centimeter segments according to a modified Kirby-Bauer method against MSSE, MRSE, MRSA, vancomycin-resistant Enterococcus (VRE), K. pneumoniae, E. coli, P. aeruginosa, P. mirabilis, and C. albicans as described in Example 2. Zones of inhibition were measured in mm after the incubation period (Table 4).
as §3, with “doxycycline,” for “levofloxacin,”, “doxycycline” for “levofloxacin”, “5).” for “4).”
(§4) To evaluate the antimicrobial activity of central venous catheters treated with dihydrolipoic acid, segments of 7 French triple lumen polyurethane central venous catheters were impregnated with dihydrolipoic acid using the same patented method described in Example 1 (U.S. Pat. No. 6,589,591) with 25 mg/ml (final solution volume) of the agent. […]

[2] = test system: MSSE; assay type: cell-based, Staphylococcus epidermidis; settings: for zone of inhibition at 100000 µg/mL: catheter impregnated with 100 mg/ml of each agent
Experimental: as §1, §2, §3
as §3, with “doxycycline,” for “levofloxacin,”, “doxycycline” for “levofloxacin”, “5).” for “4).”
as §4

[3] = test system: MRSA; assay type: cell-based, Staphylococcus aureus; settings: for zone of inhibition at 100000 µg/mL: catheter impregnated with 100 mg/ml of each agent
Experimental: as §1, §2, §3
as §3, with “doxycycline,” for “levofloxacin,”, “doxycycline” for “levofloxacin”, “5).” for “4).”
as §4

[4] = test system: vancomycin-resistant Enterococcus (VRE); assay type: cell-based; settings: Enterococcus, catheter impregnated with 100 mg/ml of each agent
Experimental: as §1
(§5) To evaluate the antimicrobial activity of central venous catheters treated with lipoamide or its combination with levofloxacin, segments of 7 French triple lumen polyurethane central venous catheters were impregnated with levofloxacin or the combinations of lipoamide and levofloxacin using the same patented method described in Example 1 (U.S. Pat. No. 6,589,591) with 100 mg/ml (final solution volume) of each agent. […] Zones of inhibition were measured in mm after the incubation period (Table 4).
as §5, with “doxycycline,” for “levofloxacin,”, “doxycycline” for “levofloxacin”, “5).” for “4).”
To evaluate the antimicrobial activity of central venous catheters treated with dihydrolipoic acid, segments of 7 French triple lumen polyurethane central venous catheters were impregnated with dihydrolipoic acid using the same patented method described in Example 1 (U.S. Pat. No. 6,589,591) with 25 mg/ml (final solution volume) of the agent. […] Zones of inhibition were measured in mm after the incubation period (Table 6).

[5] = test system: Candida albicans; assay type: cell-based; settings: for zone of inhibition at 100000 µg/mL: catheter impregnated with 100 mg/ml of each agent
Experimental: as §1, §2, §3
as §3, with “doxycycline,” for “levofloxacin,”, “doxycycline” for “levofloxacin”, “5).” for “4).”
as §4

[6] = test system: Escherichia coli; assay type: cell-based; settings: for zone of inhibition at 100000 µg/mL: catheter impregnated with 100 mg/ml of each agent
Experimental: as §1, §2, §3
as §3, with “doxycycline,” for “levofloxacin,”, “doxycycline” for “levofloxacin”, “5).” for “4).”
as §4

[7] = test system: Klebsiella pneumoniae II; assay type: cell-based; settings: for zone of inhibition at 100000 µg/mL: Klebsiella pneumoniae II, catheter impregnated with 100 mg/ml of each agent
Experimental: as §1, §2, §3
as §3, with “doxycycline,” for “levofloxacin,”, “doxycycline” for “levofloxacin”, “5).” for “4).”
as §4

[8] = test system: Klebsiella pneumoniae I; assay type: cell-based; settings: for zone of inhibition at 100000 µg/mL: catheter impregnated with 100 mg/ml of each agent
Experimental: as §1, §2, §3
as §3, with “doxycycline,” for “levofloxacin,”, “doxycycline” for “levofloxacin”, “5).” for “4).”
as §4

[9] = test system: Proteus mirabilis; assay type: cell-based; settings: for zone of inhibition at 100000 µg/mL: catheter impregnated with 100 mg/ml of each agent
Experimental: as §1, §2, §3
as §3, with “doxycycline,” for “levofloxacin,”, “doxycycline” for “levofloxacin”, “5).” for “4).”
as §4

[10] = test system: Pseudomonas aeruginosa; assay type: cell-based; settings: Pseudomonas aeruginosa; for zone of inhibition at 100000 µg/mL: Pseudomonas aeroginosa, catheter impregnated with 100 mg/ml of each agent
Experimental: as §1, §2, §3
as §3, with “doxycycline,” for “levofloxacin,”, “doxycycline” for “levofloxacin”, “5).” for “4).”
as §4

[11] = Staphylococcus epidermidis, catheter impregnated with 50 mg/ml of each agent, 37° C., 24 hours
[12] = catheter impregnated with 50 mg/ml of each agent, 37° C., 24 hours

| Compound | zone of inhibition at 100000 µg/mL ([1]; Staphylococcus epidermidis) [mm] | zone of inhibition at 100000 µg/mL ([2]; Staphylococcus epidermidis) [mm] | zone of inhibition at 100000 µg/mL ([3]; Staphylococcus aureus) [mm] | zone of inhibition at 100000 µg/mL [4] [mm] | zone of inhibition at 100000 µg/mL [5] [mm] | zone of inhibition at 100000 µg/mL [6] [mm] | zone of inhibition at 100000 µg/mL [7] [mm] | zone of inhibition at 100000 µg/mL [8] [mm] | zone of inhibition at 100000 µg/mL [9] [mm] | zone of inhibition at 100000 µg/mL [10] [mm] | also measured |
| --- | --- | --- | --- | --- | --- | --- | --- | --- | --- | --- | --- |
| C[C@H]1c2cccc(O)c2C(=O)C2=C(O)[C@]3(O)C(=O)C(C(N)=O)=C(O)[C@@H](N(C)C)[C@@H]3[C@@H](O)[C@@H]21 [Doxycycline, doxycycline] | 38 | 20 | 19 | 30 | 5 | 22 | 7 | 19 | 0 | 11 | zone of inhibition at 50000 µg/mL [1, 11]: 35 mm; zone of inhibition at 50000 µg/mL [2, 11]: 21 mm; zone of inhibition at 50000 µg/mL ([3]; Staphylococcus aureus, catheter impregnated with 50 mg/ml of each agent, 37° C., 24 hours): 22 mm; zone of inhibition at 50000 µg/mL [5, 12]: 13 mm; zone of inhibition at 50000 µg/mL [6, 12]: 24 mm; zone of inhibition at 50000 µg/mL ([7]; Klebsiella pneumoniae, Klebsielle pneuminiae II, catheter impregnated with 50 mg/ml of each agent, 37° C., 24 hours): 13 mm; zone of inhibition at 50000 µg/mL [8, 12]: 17 mm; zone of inhibition at 50000 µg/mL [9, 12]: 4 mm; zone of inhibition at 50000 µg/mL [10, 12]: 13 mm |
| C[C@H]1COc2c(N3CCN(C)CC3)c(F)cc3c(=O)c(C(=O)O)cn1c23 [Levofloxacin, levofloxacin] | 31 | 30 | 21 | 7 | 0 | 27 | 18 | 24 | 31 | 19 |  |
| gentamicin |  |  |  |  |  |  |  |  |  |  | Zones of inhibition [1, 12]: 22 mm; Zones of inhibition [2, 12]: 21 mm; Zones of inhibition [3, 12]: 15 mm; Zones of inhibition [5, 12]: 0 mm; Zones of inhibition [6, 12]: 12 mm; Zones of inhibition ([7]; Klebsielle pneuminiae II, catheter impregnated with 50 mg/ml of each agent, 37° C., 24 hours): 0 mm; Zones of inhibition [8, 12]: 13 mm; Zones of inhibition [9, 12]: 14 mm; Zones of inhibition [10, 12]: 5 mm |
